# Assay results: paper doi:10.1101/2021.09.28.462164v1 (biorxiv, 2021)
# Numbering of substitutions follows the chain as printed.
# Legend:
# Assay type in all cases: cell-based
# Details in all cases: 30 C; extract in 50 mM Tris-HCl pH 7.5; described as competitive inhibitor
# HsHK2 [1] = biological target: T1, HsHK2 (Homo sapiens, UniProt P52789)
# T1 sequence (P52789 1-917): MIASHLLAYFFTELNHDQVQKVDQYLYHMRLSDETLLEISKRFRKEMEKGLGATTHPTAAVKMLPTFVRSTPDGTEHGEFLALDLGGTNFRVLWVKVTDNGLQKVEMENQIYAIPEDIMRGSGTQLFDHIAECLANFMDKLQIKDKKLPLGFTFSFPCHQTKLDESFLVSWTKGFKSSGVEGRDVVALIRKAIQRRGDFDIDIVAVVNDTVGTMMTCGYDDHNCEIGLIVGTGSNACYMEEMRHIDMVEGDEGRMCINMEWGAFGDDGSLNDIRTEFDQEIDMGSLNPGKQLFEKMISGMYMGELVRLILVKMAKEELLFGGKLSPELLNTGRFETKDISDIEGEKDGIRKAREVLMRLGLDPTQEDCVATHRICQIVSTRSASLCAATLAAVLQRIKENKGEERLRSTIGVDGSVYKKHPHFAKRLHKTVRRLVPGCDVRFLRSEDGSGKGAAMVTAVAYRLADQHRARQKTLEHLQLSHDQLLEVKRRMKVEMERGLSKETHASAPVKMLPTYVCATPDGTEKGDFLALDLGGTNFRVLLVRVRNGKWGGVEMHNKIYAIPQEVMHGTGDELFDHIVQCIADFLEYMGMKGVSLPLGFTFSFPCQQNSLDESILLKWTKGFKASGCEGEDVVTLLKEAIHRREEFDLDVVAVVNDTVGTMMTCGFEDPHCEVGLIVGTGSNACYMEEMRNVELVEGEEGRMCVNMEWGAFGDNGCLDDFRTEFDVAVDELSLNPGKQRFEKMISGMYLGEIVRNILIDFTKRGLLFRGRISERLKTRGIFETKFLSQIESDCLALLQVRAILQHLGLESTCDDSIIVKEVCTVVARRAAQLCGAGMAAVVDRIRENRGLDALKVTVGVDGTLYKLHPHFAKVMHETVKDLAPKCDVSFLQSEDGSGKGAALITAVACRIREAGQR
# HsHK1 [2] = biological target: T2, HsHK1 (Homo sapiens, UniProt P19367, G679A)
# T2 sequence (P19367 1-917 G679A): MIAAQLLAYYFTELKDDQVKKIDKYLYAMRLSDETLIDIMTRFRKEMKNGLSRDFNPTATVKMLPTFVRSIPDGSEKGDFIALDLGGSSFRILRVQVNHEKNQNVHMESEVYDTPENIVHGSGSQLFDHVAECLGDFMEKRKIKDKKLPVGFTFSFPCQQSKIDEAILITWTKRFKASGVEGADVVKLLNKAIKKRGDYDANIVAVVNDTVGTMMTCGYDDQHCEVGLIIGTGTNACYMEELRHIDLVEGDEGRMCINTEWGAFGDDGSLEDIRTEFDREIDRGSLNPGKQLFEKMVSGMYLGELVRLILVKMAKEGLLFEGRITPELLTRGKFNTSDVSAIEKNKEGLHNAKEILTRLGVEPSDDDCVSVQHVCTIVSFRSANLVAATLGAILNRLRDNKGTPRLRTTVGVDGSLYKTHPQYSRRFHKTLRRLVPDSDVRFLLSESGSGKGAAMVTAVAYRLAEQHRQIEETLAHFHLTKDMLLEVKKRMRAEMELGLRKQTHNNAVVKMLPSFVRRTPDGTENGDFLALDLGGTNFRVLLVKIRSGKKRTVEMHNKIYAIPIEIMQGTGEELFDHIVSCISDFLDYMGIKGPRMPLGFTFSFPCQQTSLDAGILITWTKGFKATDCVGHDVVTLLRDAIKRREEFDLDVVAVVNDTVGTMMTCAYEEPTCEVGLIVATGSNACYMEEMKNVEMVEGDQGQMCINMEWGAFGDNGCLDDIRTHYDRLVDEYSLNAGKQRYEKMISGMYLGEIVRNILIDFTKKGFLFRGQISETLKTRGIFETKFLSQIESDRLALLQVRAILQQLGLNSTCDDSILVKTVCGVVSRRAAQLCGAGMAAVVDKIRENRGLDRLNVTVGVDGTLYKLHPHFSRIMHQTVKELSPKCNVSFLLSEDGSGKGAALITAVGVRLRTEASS
# HsHK1 [3] = biological target: T3, HsHK1 (Homo sapiens, UniProt P19367)
# T3 sequence (P19367 1-917): T2 sequence (P19367 1-917 G679A) with A679G
# HsHK2 [4] = biological target: T4, HsHK2 (Homo sapiens, UniProt P52789, L776F)
# T4 sequence (P52789 1-917 L776F): T1 sequence (P52789 1-917) with L776F
compound,measurement,setting,value
O=P(O)(O)OC[C@H]1OC(O)[C@H](O)[C@@H](O)[C@@H]1O (stereo partly shown) [glucose-6-phosphate],IC50,HsHK2 [1],87 ± 21 µM
same,IC50,HsHK1 [2],320 ± 100 µM
same,IC50,HsHK1 [3],38 ± 15 µM
same,IC50,HsHK2 [4],260 ± 200 µM
